Tested on: parasites (ring stage parasites, parasite growth)
Experiment: Parasite LDH growth assay (Parasite Assay), antiparasite potency
Assay type: cell-based
Settings: 72 hours growth, LDH readout
Procedure, shortened: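 Ring-stage culture was adjusted to 0.7% parasitemia and 2% haematocrit in bicarbonate-buffered RPMI-Hepes with heat-inactivated human serum and 0.5% albumax, then added to compound. Plates were incubated 72 h at 37 °C in gassed humidified boxes, frozen at −80 °C overnight and thawed, and growth was read by LDH assay.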

Structure (SMILES) | EC50 (72 h, Table 3) [nM] | EC50 (Table 3) [nM] | other results
CC1(C)CC(=O)N([C@H](c2cccnc2)[C@@H]2C[C@H]2C(=O)NC2CC(C)(C)Oc3c(Cl)cc(Cl)cc32)C(=N)N1 (stereo partly drawn) [Example 94A] | 0.9 |  | 
CC1(C)CC(=O)N([C@H](c2ccc(C#N)cc2)[C@@H]2C[C@H]2C(=O)N[C@H]2C[C@H](C(F)(F)F)Oc3ccccc32)C(=N)N1 [Example 47B] | 0.9 |  | 
COCC[C@H]([C@@H]1C[C@H]1C(=O)N[C@H]1C[C@H](C(F)(F)F)Oc2ccccc21)N1C(=N)NC(C)(C)CC1=O [Example 24B] | 2 |  | 
COCC[C@H]([C@@H]1C[C@H]1C(=O)N[C@H]1CC(C)(C)Oc2c(C(F)(F)F)ccc(F)c21)N1C(=N)NC(C)(C)CC1=O [Example 114B] | 5.1 |  | 
COCC[C@H]([C@@H]1C[C@H]1C(=O)N[C@H]1CC(C)(C)Oc2cccc(OC(F)(F)F)c21)N1C(=N)NC(C)(C)CC1=O [Example 107A] | 2.1 |  | 
CC[C@]1(C)CC(=O)N([C@H](CCOC)[C@@H]2C[C@H]2C(=O)N[C@H]2CC(C)(C)Oc3ccc(C)cc32)C(=N)N1 [Example 123] | 2 |  | 
CCC1(CC)CC(=O)N(C[C@H]2C[C@@H]2C(=O)N[C@H]2CCOc3ccccc32)C(=N)N1 [Example 4A] | 94 |  | 
COCC[C@H]([C@@H]1C[C@H]1C(=O)NC1CC(C)(C)Oc2cc(F)ccc21)N1C(=N)NC(C)(C)CC1=O (stereo partly drawn) [Example 76A] | 17 |  | 
CCC1(CC)CC(=O)N(CC2C(C(=O)N[C@H]3CC(C)(C)Oc4ccccc43)C2(F)F)C(=N)N1 (single isomer, unassigned) [Example 16A] |  | 33 | 
COCC[C@H]([C@@H]1C[C@H]1C(=O)N[C@@H]1C[C@@H](C(F)(F)F)Oc2ccccc21)N1C(=N)NC(C)(C)CC1=O [Example 24C] |  | 120 | 
COCC[C@H]([C@@H]1C[C@H]1C(=O)NC1CC(C)(C)Oc2c(Cl)cccc21)N1C(=N)NC(C)(C)CC1=O (stereo partly drawn) [Example 112B] |  | 9.4 | 
CCC1(CC)CC(=O)N(C[C@@H]2C[C@H]2C(=O)N[C@@H]2CC(C)(C)Oc3ccc(F)cc32)C(=N)N1 [Example 7B] | 29 |  | 
COCC[C@H]([C@@H]1C[C@H]1C(=O)N[C@H]1CC(C)(C)Oc2cc(C)ccc21)N1C(=N)NC(C)(C)CC1=O [Example 83A] | 6.6 |  | 
COCC[C@H]([C@@H]1C[C@H]1C(=O)NC1CC(C)(C(C)C)Oc2ccccc21)N1C(=N)NC(C)(C)CC1=O (single isomer, unassigned) [Example 80A] |  | 9.4 | 
COCC[C@H]([C@@H]1C[C@H]1C(=O)N[C@@H]1CC(C)(C)Oc2c(C(F)(F)F)ccc(F)c21)N1C(=N)NC(C)(C)CC1=O [Example 114A] | 89 |  | 
COCC1(C)CC(NC(=O)[C@@H]2C[C@H]2[C@@H](c2cccnc2)N2C(=N)NC(C)(C)CC2=O)c2ccccc2O1 (single isomer, unassigned) [Example 108D] |  | 8.5 | 
CC1C[C@H](NC(=O)[C@@H]2C[C@H]2CN2C(=N)NC(C)(C)CC2=O)c2cc(F)ccc2O1 (stereo partly drawn) [Example 139A] | 99 |  | 
CC1(C)CC(=O)N([C@H](c2cccc(C#N)c2)[C@@H]2C[C@H]2C(=O)N[C@H]2CC(C)(C)Oc3ccccc32)C(=N)N1 [Example 50] | 3 |  | 
CC(C)C1(C)CC(NC(=O)[C@@H]2C[C@H]2CN2C(=N)NC(C)(C)CC2=O)c2ccccc2O1 (stereo partly drawn) [Example 79A] | 255 |  | 

Structure (SMILES) | EC50 (72 h, Table 3) [nM] | EC50 (Table 3) [nM] | other results
CCC1(C)CC(NC(=O)[C@@H]2C[C@H]2[C@@H](CCOC)N2C(=N)NC(C)(C)CC2=O)c2ccccc2O1 (single isomer, unassigned) [Example 75C] |  | 7 | 
COCC[C@H]([C@@H]1C[C@H]1C(=O)N[C@@H]1CC(C)(C)Oc2cccc(Cl)c21)N1C(=N)NC(C)(C)CC1=O [Example 116B] | 18 |  | 
CC[C@]1(C)CC(=O)N(C(c2cncc(F)c2)[C@@H]2C[C@H]2C(=O)NC2c3ccccc3OC(C(F)(F)F)C2O)C(=N)N1 (single isomer, unassigned) [Example 104B] |  | 22 | 
COCC[C@H]([C@@H]1C[C@H]1C(=O)NC1CC(C)(C)Oc2ccc(OC(F)(F)F)cc21)N1C(=N)NC(C)(C)CC1=O (stereo partly drawn) [Example 126B] |  | 8.4 | 
CCC1(CC)CC(=O)N(CC2C(C(=O)N[C@H]3CCOc4ccccc43)C2(F)F)C(=N)N1 (stereo partly drawn) [Example 15B] |  | 230 | 
COCC1(C)CC(NC(=O)[C@@H]2C[C@H]2[C@@H](c2cccnc2)N2C(=N)NC(C)(C)CC2=O)c2ccccc2O1 (single isomer, unassigned) [Example 108A] |  | 70 | 
COCC[C@H]([C@@H]1C[C@H]1C(=O)N[C@@H]1CC(C)(C)Oc2ccc(C(F)(F)F)cc21)N1C(=N)NC(C)(C)CC1=O [Example 110A] | 21 |  | 
CCC1(CC)CC(=O)N(C[C@@H]2C[C@H]2C(=O)N[C@H]2C[C@H](C(F)(F)F)Oc3ccccc32)C(=N)N1 [Example 8A] | 37 |  | 
COCC[C@H]([C@@H]1C[C@H]1C(=O)N[C@H]1CC(C)(C)Oc2cc(OC(F)(F)F)ccc21)N1C(=N)NC(C)(C)CC1=O [Example 134B] | 25 |  | 
CC(C)C1(C)CC(NC(=O)[C@@H]2C[C@H]2[C@@H](c2cccnc2)N2C(=N)NC(C)(C)CC2=O)c2ccccc2O1 (single isomer, unassigned) [Example 81D] |  | 1.3 | 
CC1(C)CC(=O)N([C@H](c2cccnc2)[C@@H]2C[C@H]2C(=O)N[C@H]2C[C@H](C(F)(F)F)Oc3ccccc32)C(=N)N1 [Example 32] | 1.8 |  | 
CCC1(CC)CC(=O)N(C[C@@H]2[C@@H](C(=O)N[C@@H]3c4ccccc4OC(C)(C)[C@H]3O)C2(F)F)C(=N)N1 [Example 18B] | 180 |  | 
CCC1(CC)CC(=O)N([C@H](CCOC)[C@@H]2C[C@H]2C(=O)N[C@H]2CC(C)(C)Oc3ccc(Cl)cc32)C(=N)N1 [Example 146] |  |  | EC50 (72 h, Table 4 (unit inferred)): 1.1 nM
Cc1cc2c(cc1Cl)[C@@H](NC(=O)[C@@H]1C[C@H]1CN1C(=N)NC(C)(C)CC1=O)CC(C)(C)O2 [Example 136] | 160 |  | 
CCC1(CC)CC(=O)N(CC2C(C(=O)N[C@H]3CCOc4ccccc43)C2(F)F)C(=N)N1 (stereo partly drawn) [Example 15A] | 240 |  | 
CC[C@]1(C)CC(=O)N(C(c2cncc(F)c2)[C@@H]2C[C@H]2C(=O)N[C@@H]2c3ccccc3OC(C)(C)C2(C)O)C(=N)N1 (single isomer, unassigned) [Example 103A] |  | 29 | 
CC[C@]1(C)CC(=O)N([C@H](CCOC)[C@@H]2C[C@H]2C(=O)N[C@@H]2c3ccccc3OC(C)(C)[C@H]2O)C(=N)N1 [Example 61] | 6.9 |  | 
CC1(C)CC(=O)N([C@H](c2cccnc2)[C@@H]2C[C@H]2C(=O)NC2CC(C)(C)Oc3c(F)cc(F)cc32)C(=N)N1 (stereo partly drawn) [Example 122A] | 2.3 |  | 
CCC1(CC)CC(=O)N(C[C@@H]2C(C)[C@H]2C(=O)N[C@@H]2c3ccccc3CC2(C)O)C(=N)N1 (single isomer, unassigned) [Example 29B] |  | 351 | 

Structure (SMILES) | EC50 (72 h, Table 3) [nM] | EC50 (Table 3) [nM] | other results
CC1(C)CC(=O)N([C@H](c2cncc(Cl)c2)[C@@H]2C[C@H]2C(=O)N[C@H]2C[C@H](C(F)(F)F)Oc3ccccc32)C(=N)N1 [Example 60A] | 0.5 |  | 
CC(C)C1(C)CC(NC(=O)[C@@H]2C[C@H]2[C@@H](c2cccnc2)N2C(=N)NC(C)(C)CC2=O)c2ccccc2O1 (single isomer, unassigned) [Example 81C] |  | 0.9 | 
CC1(C)CC(=O)N([C@H](c2cccnc2)[C@@H]2C[C@H]2C(=O)NC2CC(C)(C)Oc3c(Cl)cccc32)C(=N)N1 (stereo partly drawn) [Example 121B] |  | 2 | 
CC1(C)CC(=O)N([C@H](c2cccnc2)[C@@H]2C[C@H]2C(=O)NC2CC(C)(C)Oc3cccc(F)c32)C(=N)N1 (stereo partly drawn) [Example 86A] | 2.2 |  | 
CCC1(CC)CC(=O)N(C(CC(C)OC)[C@@H]2C[C@H]2C(=O)N[C@@H]2CC(C)(C)Oc3ccccc32)C(=N)N1 (single isomer, unassigned) [Example 143A] |  |  | EC50 (Table 4 (unit inferred)): 4.6 nM
Cc1ccc2c(c1)OC(C)(C)C[C@@H]2NC(=O)[C@@H]1C[C@H]1[C@@H](c1cccnc1)N1C(=N)NC(C)(C)CC1=O [Example 85B] | 0.9 |  | 
CCC1(CC)CC(=O)N(C[C@@H]2C(C)[C@H]2C(=O)NC2c3ccccc3OC2(C)C)C(=N)N1 (stereo partly drawn) [Example 36B] |  | 301 | 
CCC1(CC)CC(=O)N(C[C@@H]2C(C)[C@H]2C(=O)NC2c3ccccc3OC2(C)C)C(=N)N1 (stereo partly drawn) [Example 36A] | 247 |  | 
CCC1(CC)CC(=O)N(C[C@@H]2C[C@H]2C(=O)N[C@@H]2C[C@@H](C(F)(F)F)Oc3ccccc32)C(=N)N1 [Example 8B] | 5.3 |  | 
CC(C)C1(C)CC(NC(=O)[C@@H]2C[C@H]2CN2C(=N)NC(C)(C)CC2=O)c2ccccc2O1 (single isomer, unassigned) [Example 79C] |  | 289 | 
CCC1(CC)CC(=O)N(C[C@@H]2C(C)[C@H]2C(=O)N[C@@H]2c3ccccc3CC2(C)O)C(=N)N1 (single isomer, unassigned) [Example 29C] |  | 113 | 
CCC1(C)CC(NC(=O)[C@@H]2C[C@H]2[C@@H](c2cccnc2)N2C(=N)NC(C)(C)CC2=O)c2ccccc2O1 (single isomer, unassigned) [Example 105C] |  | 0.8 | 
CCC1(CC)CC(=O)N([C@H](CCOC)[C@@H]2C[C@H]2C(=O)N[C@H]2c3ccccc3OCC2(C)C)C(=N)N1 [Example 19A] | 28 |  | 
CC1(C)CC(=O)N(C(c2cccc(C#N)c2)[C@@H]2C[C@H]2C(=O)NC2CC(C)(C)Oc3ccc(F)cc32)C(=N)N1 (stereo partly drawn) [Example 53A] | 3.1 |  | 
COCC[C@H]([C@@H]1C[C@H]1C(=O)NC1CC(C)(C)Oc2ccccc21)N1C(=N)NC(C)(C)CC1=O (stereo partly drawn) [Example 23B] |  | 15 | 
COCC[C@H]([C@@H]1C[C@H]1C(=O)N[C@H]1CC(C)(C)Oc2cc(C)c(Cl)cc21)N1C(=N)NC(C)(C)CC1=O [Example 137B] | 6.4 |  | 
CCC1(C)CC(NC(=O)[C@@H]2C[C@H]2[C@@H](c2cccnc2)N2C(=N)NC(C)(C)CC2=O)c2ccccc2O1 (single isomer, unassigned) [Example 105B] |  | 1.8 | 
COCC[C@H]([C@@H]1C[C@H]1C(=O)N[C@H]1CC(C)(C)Oc2cc(Cl)ccc21)N1C(=N)NC(C)(C)CC1=O [Example 89A] | 5.6 |  | 
COCC[C@H]([C@@H]1C[C@H]1C(=O)NC1CC(C)(C)Oc2ccccc21)N1C(=N)NC(C)(C)CC1=O (stereo partly drawn) [Example 23A] | 16 |  | 

Reference: patent publication US12338219B2, “Antimalarial agents” (Merck Sharp & Dohme LLC, priority 2019, dated 2025)
